Format in all cases: cell-based, mouse
The test system of test [1] is CD3+ T cells derived from young mice. The test can be described thus: Expression of ferritin, HO-1 and CD39 in young T cells by flow cytometry. The note with it: young T cells exposed to heme. From the text: (§1) T cell isolation and culture. T cells were harvested from mice spleens and/or lymph nodes (inguinal, axillary, brachial, mandibular, and jejunal), and purified by magnetic separation. Depending on the specific experiment, either bulk CD3^+ T cells or bulk CD3^+CD4^+ T cells or pure naïve (CD3^+CD4^+CD62L^+ CD441^lo CD25^−) T cells were purified using commercially available kits (StemCell, 19765A, 19852A, 19851A), following the manufacturer instructions. The protocol for isolating pure naïve T cells from aged mice was modified, as additional antibodies were added to the initial antibody cocktail to overcome changes in T cell population composition in the aged. Specifically, biotinylated anti-mouse/human CD44 (BioLegend, IM7), and biotinylated anti-mouse CD25 (miltenyi 130-123-860, REA568), were added to the company's premade antibody cocktail for negative selection of lymphocytes. Furthermore, the present inventors performed a step of positive selection of CD62L^+ naïve T cells, using anti-mouse CD62L microbeads (miltenyi, 130-049-701) and magnetic columns (miltenyi, 130-042-201). Primary T cells were cultured at 37° C. and 5% CO2 in RPMI media, supplemented with: 10% FBS, 10 mM Hepes, penicillin/streptomycin, and 0.035% beta-mercaptoethanol. For activation, cells were cultured on plates pre-coated (overnight at 4° C.) with anti-CD3 (2 μg/mL; clone 145-2C11, BioXCell) and anti-CD28 (4 μg/mL, clone 37.51; BioXCell). Resting cells were supplemented with 5 ng/ml recombinant murine IL-7 (PEPROTECH, 217-17). In some experiments, cell cultures were supplemented with hemin chloride (cayman, 16487), ammonium iron (III) citrate (thermos scientific, A11199.30), BSA (Sigma-Aldrich, A9647), and spleen extract, at different concentrations, as indicated in relevant experiments.
(§2) Flow cytometry. […] Intracellular ferrous iron was measured using FerroOrange (Dojindo F374).
Background: In flow cytometry, cells or beads pass a laser one at a time.

Test [2] has the same test system. The test can be described thus: Proliferation of young T cells stimulated ex vivo with anti-CD3/anti-CD28 (cell trace violet). The note with it: young T cells activated 48 hr, exposure to heme or SE alone.
Description: as §1, §2

The test system is the same in test [3]. The test is described as follows: Viability of young T cells cultured with heme or spleen extract (Zombie, flow cytometry). The note with it: resting young CD3+ T cells with IL-7, heme for 48 hr.
Description: as §1
Collection of a interstitial fluid-enriched fraction (referred to as spleen extract; SE). Spleens from young or aged mice were harvested, and gently dissociated ontop of a […] cell strainer, in 5 mL PBS or RPMI, 5 min centrifugation at 1350 RPM to separate the cellular pellet from the fluidic fraction, enriched with interstitial components.
as §2

The subject of test [4] is young T cells. The test is described as follows: Lipid peroxidation (BODIPY 581/591 C11) in young T cells. The note with it: T cells exposed to heme.
Test [5] relates to T cells. The test can be described thus: Lysosomal intracellular activity assay. The note with it: T cells activated in the presence of heme.
For test [6], the system named is T cells. The test is described as follows: CD63 expression on T cells by flow cytometry. The note with it: T cells cultured with heme at different concentrations. As for the experimental part:
as §2

Another test has as its system resting young T cells. The test is described as follows: FOXO1 levels in resting young T cells by flow cytometry. The note with it: resting young T cells incubated ex vivo for 4-48 hr. As for the experimental part: as §2
Lysosomal dysfunction results in accumulation of late endosomes, also referred to as multi vesicular bodies (MVBs), that are identified by expression of CD63. […] FOXO1 regulates expression of TFEB, the master regulator of lysosomal biogenesis^17. Moreover, FOXO1 expression is critical for maintaining T cell quiescence, and its deficiency induces T cell senescence^18. The present inventors hypothesized that the microenvironment in the aged spleen suppressed FOXO1 expression, thus inducing T cell priming (FIG. 7E-G) and dysregulates lysosomal biogenesis and activity. To test this hypothesis, FOXO1 levels were quantified in resting young T cells that were incubated ex vivo with either heme or SE.

The test system of test [7] is T cells. The test is described as follows: Lysosomal mass (lysotracker; flow cytometry and fluorescent microscopy). The note with it: T cells +/- activation +/- heme. As for the experimental part: as §2
Fluorescent microscopy. Cells were stained simultaneously with lysotracker deep red and FerroOrange in HBSS as described above, and imaged using Leica DMI8 inverted fluorescent microscope.

Test [8] relates to T cells derived from young mice. The test can be described thus: Immunophenotyping of young T cells after ex vivo incubation with heme. The note with it: young T cells incubated with heme, without TCR-mediated stimulation.
Description: as §1, with “For activation, cells were cultured on plates pre-coated (overnight at 4° C.) with anti-CD3 (2 μg/mL; clone 145-2C11, BioXCell) and anti-CD28 (4 μg/mL, clone 37.51; BioXCell). Resting cells were supplemented with 5 ng/ml recombinant murine IL-7 (PEPROTECH, 217-17). In some experiments, cell cultures were supplemented with hemin chloride (cayman, 16487), ammonium iron (III) citrate (thermos scientific, A11199.30), BSA (Sigma-Aldrich, A9647), and spleen extract, at different concentrations, as indicated in relevant experiments.” left out
as §2

Test [9] deals with young T cells. The test is described as follows: Cellular ROS (DCFDA) in young T cells. The note with it: T cells exposed to heme, 48 hr. As for the experimental part: Functional assays and intracellular ferrous iron staining. Intracellular ferrous iron was measured using FerroOrange (Dojindo, F374). […] All assays were analyzed by flow cytometry.

“Also recorded” adds a separate entry of the source.

Regarding hemin chloride [heme], in test [1], the CD39 expression entry is “also induced; also recorded: sufficient to induce CD39”, the “expression of HO-1” value was “sufficient to induce expression” and the expression of ferritin entry is recorded as “sufficient to induce expression”. In test [1] (listed as Heme), the CD39 expression entry is “induces expression”, the “expression of HO-1” value is recorded as “induces expression” and the expression of ferritin entry was “induces expression”. Besides, the proliferation result in test [2] is “completely blocked”. Moreover, in test [3], the cell viability entry is “significantly reduced cell viability, in a dose-dependent manner”. Further, in test [3] (listed as Heme), the cell viability result is “reduces cell viability”. For the same substance, in the test with young T cells [4], the lipid peroxidation result was “large induction in lipid peroxidation”. Besides, the lysosomal activity result with T cells [5] is given as “suppressed”. Also, the CD63 expression entry in the test on T cells [6] was “induced CD63 expression, in a dose-dependent manner”. Also, the FOXO1 levels entry with resting young T cells was “dropped within 4 hr and continued to drop during the 48 hr of incubation”. Also, in the test on T cells [7], the lysosomal mass entry is recorded as “downregulated lysosomal mass”. Besides, the “T cell differentiation / naïve T cell pool” value in test [8] is “sufficient to induce T cell differentiation and deplete the naïve T cell pool”. The “increase in cellular ROS” value with young T cells [9] was approximately 2 fold.

Values taken from patent US20240325437A1, “METHODS AND COMPOSITIONS FOR USE IN IMPROVING ADAPTIVE IMMUNITY IN THE ELDERLY POPULATION” (Technion Research & Development Foundation Limited, priority 2023, published 2024).
